Format in all cases: physicochemical
Data set [1] is described as follows: Menthone inclusion (precipitation of the complex). To be noted: 100 mg of sample dissolved in water, 20 μl menthone added to notice precipitation.
A short description of data set [2]: Toluene inclusion (precipitation of the cyclodextrin-toluene complex). To be noted: 100 mg of sample dissolved in water, 20 μl toluene added to notice precipitation. The method, then:
From 4.7 g β-cyclodextrin (dry), an oxidised cyclodextrin was prepared as described in Example 1, using 10 ml 2.0 M NaOCl solution, 150 mg NaBr and 80 mg 4-acetamido-TEMPO. The ratio acid/aldehyde was derived from the sodium hydroxide consumption and also experimentally determined. According to calculation, 6.3 mmol acid and 6.9 mmol aldehyde were produced. […] The reaction mixture was concentrated in vacuum to about 120 ml. […] Precipitation of the oxidised cyclodextrin-toluene complex started slowly i.e. after 10 minutes it was visible that a precipitate was formed. After 5 hours the process of precipitation formation seemed to be finished.
The same experiment was repeated with an acidified solution (pH 3). Here precipitation started immediately after mixing. The process was complete within one hour.
From 4.7 g β-cyclodextrin (dry) an oxidised cyclodextrin was prepared as described in Example 1, using 5 ml 2.0 M NaOCl solution, 150 mg NaBr and 4-acetamido-TEMPO. The ratio acid/aldehyde was derived from the sodium hydroxide consumption and also experimentally determined. According to calculation 2.2 mmol acid and 5.7 mmol aldehyde were produced. […] The reaction mixture was concentrated in vacuum to about 120 ml. […] Precipitation of the oxidised cyclodextrin-toluene complex started immediately and after one hour the process of precipitation formation appeared to be finished.

Data set [3] in a line: Adsorption of phenolphthalein by oxidised β-cyclodextrin (absorption at 553 nm). The settings on record: sample 1 mg/ml in sodium carbonate buffer pH 10.3 mixed with 10 μl 0.1% phenolphthalein in ethanol. The method, then: Five grams of β-cyclodextrin (CAVAMAX® W7 from Wacker-CHEMIE GMBH) on dry weight basis was dissolved in 300 ml of demi-water, and 22.4 ml of a 0.032 M 4-acetamido TEMPO solution was; added. Subsequently, β-cyclodextrin was oxidised by addition of sodium hypochlorite. Batches were prepared with theoretically one, two and three anhydroglucose units fully oxidised per cyclodextrin molecule (average) per β-cyclodextrin molecule using sodium hypochlorite. The pH was kept constant during reaction by addition of 0.5 M NaOH, controlled by a pH stat (Metrohm). After completion of the oxidation, the aldehyde groups were reduced with sodium borohydride. The respective batches were concentrated in a rotary evaporator, and subsequently freeze-dried. The freeze-dried material was washed in a methanol/water mixture to remove salts and 4-acetamido-TEMPO. The batches were finally washed with acetone and dried in an oven at 50° C. The inclusion properties were investigated (see Table 1).

As to `OC[C@H]1O[C@@H]2O[C@H]3[C@H](O)[C@@H](O)[C@@H](O[C@H]4[C@H](O)[C@@H](O)[C@@H](O[C@H]5[C@H](O)[C@@H](O)[C@@H](O[C@H]6[C@H](O)[C@@H](O)[C@@H](O[C@H]7[C@H](O)[C@@H](O)[C@@H](O[C@H]8[C@H](O)[C@@H](O)[C@@H](O[C@H]1[C@H](O)[C@H]2O)O[C@@H]8CO)O[C@@H]7CO)O[C@@H]6CO)O[C@@H]5CO)O[C@@H]4CO)O[C@@H]3CO` [Example 0, β-cyclodextrin], the Menthone inclusion result in data set [1] (Table 1) and in data set [1] (Table 2) was “Yes” each time. The Toluene inclusion result in data set [2] (Table 1) and in data set [2] (Table 2) was “Yes” in each case. The “Phenolphthalein Absorption (at γ = 553 nm)” value came to 0.025 in data set [3] (Table 1) and 0.025 in data set [3] (Table 2, solution without cyclodextrin Abs. = 0.65).

The values are drawn from patent US20030086974A1, “Odour regulation in hygiene products” (priority 2001, published 2003).
